Experiments:
[1] = target: Glutamate receptor ionotropic, NMDA 1 (Rattus norvegicus, UniProt P35439)
[2] = target: cGMP-inhibited 3',5'-cyclic phosphodiesterase 3A (Homo sapiens, UniProt Q14432); assay type: functional
[3] = target: Beta-1 adrenergic receptor (Homo sapiens, UniProt P08588); assay type: functional
Cannabinoid receptor 1 = Cannabinoid receptor 1 (Homo sapiens, UniProt P21554); assay type: functional, cell-based
[4] = target: T1, Cholecystokinin receptor type A (Homo sapiens, UniProt P32238)
T1 sequence (P32238 whole entry): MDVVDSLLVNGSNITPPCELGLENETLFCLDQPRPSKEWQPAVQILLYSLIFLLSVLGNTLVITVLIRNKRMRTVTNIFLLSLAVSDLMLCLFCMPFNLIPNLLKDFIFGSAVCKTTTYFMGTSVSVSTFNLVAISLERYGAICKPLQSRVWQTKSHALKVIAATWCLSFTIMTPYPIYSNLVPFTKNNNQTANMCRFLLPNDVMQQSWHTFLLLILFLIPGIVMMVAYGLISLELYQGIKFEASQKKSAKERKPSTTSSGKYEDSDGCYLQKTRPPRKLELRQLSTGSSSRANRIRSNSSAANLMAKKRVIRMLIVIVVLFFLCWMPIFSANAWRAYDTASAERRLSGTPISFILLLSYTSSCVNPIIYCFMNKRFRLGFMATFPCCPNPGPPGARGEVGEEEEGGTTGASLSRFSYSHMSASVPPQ

Histamine H2 receptor = Histamine H2 receptor (Homo sapiens, UniProt P25021); assay type: functional, cell-based
Histamine H2 receptor, sequence (P25021 whole entry): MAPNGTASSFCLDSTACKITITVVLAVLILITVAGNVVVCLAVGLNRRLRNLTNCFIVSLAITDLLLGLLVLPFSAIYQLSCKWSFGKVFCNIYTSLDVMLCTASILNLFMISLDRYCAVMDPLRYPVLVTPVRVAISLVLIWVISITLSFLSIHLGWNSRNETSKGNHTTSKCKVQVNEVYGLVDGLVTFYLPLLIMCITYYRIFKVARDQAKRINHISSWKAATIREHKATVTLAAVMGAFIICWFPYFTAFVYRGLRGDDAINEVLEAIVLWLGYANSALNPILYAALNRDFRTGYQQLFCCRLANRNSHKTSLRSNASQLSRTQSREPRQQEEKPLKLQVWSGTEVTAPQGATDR

[5] = target: Sodium-dependent serotonin transporter (Homo sapiens, UniProt P31645)
Sodium-dependent serotonin transporter, sequence (P31645 whole entry): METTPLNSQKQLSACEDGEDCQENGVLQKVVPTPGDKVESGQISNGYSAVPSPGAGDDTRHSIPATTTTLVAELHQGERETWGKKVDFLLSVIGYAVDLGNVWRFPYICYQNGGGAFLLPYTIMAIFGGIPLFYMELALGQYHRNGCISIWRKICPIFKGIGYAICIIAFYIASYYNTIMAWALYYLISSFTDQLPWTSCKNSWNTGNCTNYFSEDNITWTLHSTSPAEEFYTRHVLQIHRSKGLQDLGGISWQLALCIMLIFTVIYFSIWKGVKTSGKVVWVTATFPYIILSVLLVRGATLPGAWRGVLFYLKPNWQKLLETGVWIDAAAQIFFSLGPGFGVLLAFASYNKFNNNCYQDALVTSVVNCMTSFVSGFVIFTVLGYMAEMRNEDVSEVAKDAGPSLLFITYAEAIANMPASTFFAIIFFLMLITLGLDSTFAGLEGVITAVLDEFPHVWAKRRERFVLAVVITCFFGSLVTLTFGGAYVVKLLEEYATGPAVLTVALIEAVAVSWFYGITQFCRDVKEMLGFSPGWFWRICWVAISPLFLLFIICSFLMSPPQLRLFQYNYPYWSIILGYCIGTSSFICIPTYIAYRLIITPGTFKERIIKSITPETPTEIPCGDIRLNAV

[6] = target: T2, Gastrin/cholecystokinin type B receptor (Homo sapiens, UniProt P32239)
T2 sequence (P32239 whole entry): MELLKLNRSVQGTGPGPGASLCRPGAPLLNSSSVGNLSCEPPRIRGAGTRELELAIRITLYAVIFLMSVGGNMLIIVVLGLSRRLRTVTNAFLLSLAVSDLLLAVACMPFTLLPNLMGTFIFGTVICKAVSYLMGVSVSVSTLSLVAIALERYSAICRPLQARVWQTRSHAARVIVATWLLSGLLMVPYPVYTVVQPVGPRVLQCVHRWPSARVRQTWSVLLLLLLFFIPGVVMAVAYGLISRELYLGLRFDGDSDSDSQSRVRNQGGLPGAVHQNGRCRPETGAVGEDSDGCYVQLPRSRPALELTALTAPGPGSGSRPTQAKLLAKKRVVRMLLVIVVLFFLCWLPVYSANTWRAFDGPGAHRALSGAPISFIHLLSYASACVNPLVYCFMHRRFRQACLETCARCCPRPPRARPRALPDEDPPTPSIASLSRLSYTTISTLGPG

[7] = target: Delta-type opioid receptor (Homo sapiens, UniProt P41143)
Delta-type opioid receptor, sequence (P41143 whole entry): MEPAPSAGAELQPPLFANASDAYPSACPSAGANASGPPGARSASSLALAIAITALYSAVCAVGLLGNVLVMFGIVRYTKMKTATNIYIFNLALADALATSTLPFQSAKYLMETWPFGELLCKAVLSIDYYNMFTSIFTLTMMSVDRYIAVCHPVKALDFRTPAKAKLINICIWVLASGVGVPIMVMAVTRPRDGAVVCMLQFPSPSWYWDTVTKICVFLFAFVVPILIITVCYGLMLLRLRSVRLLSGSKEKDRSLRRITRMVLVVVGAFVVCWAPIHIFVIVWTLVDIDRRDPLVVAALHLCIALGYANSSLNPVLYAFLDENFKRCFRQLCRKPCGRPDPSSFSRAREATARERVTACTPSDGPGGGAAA

[8] = target: T3, Type-1 angiotensin II receptor (Homo sapiens, UniProt P30556)
T3 sequence (P30556 whole entry): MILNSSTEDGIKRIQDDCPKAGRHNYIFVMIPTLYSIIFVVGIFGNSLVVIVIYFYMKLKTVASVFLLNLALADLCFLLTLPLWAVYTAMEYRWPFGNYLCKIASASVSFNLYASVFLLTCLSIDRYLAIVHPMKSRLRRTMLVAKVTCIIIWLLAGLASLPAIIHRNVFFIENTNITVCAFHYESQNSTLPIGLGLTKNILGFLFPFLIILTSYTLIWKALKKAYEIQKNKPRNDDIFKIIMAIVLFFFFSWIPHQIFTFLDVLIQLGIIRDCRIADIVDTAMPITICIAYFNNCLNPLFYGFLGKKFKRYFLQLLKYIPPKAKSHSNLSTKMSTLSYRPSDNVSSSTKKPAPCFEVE

[9] = target: Growth hormone secretagogue receptor type 1 (Homo sapiens, UniProt Q92847)
Growth hormone secretagogue receptor type 1, sequence (Q92847 whole entry): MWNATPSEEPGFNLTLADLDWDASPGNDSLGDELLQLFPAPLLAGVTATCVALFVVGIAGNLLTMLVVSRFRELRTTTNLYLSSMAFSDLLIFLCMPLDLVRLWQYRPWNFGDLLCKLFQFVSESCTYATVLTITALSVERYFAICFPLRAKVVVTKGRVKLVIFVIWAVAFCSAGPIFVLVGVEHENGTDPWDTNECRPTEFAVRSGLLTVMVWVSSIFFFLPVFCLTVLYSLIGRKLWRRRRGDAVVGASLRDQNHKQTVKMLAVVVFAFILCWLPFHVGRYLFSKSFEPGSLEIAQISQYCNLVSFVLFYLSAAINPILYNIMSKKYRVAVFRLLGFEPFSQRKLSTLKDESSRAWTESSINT

Thromboxane A2 receptor = target: T4, Thromboxane A2 receptor (Homo sapiens, UniProt P21731)
T4 sequence (P21731 whole entry): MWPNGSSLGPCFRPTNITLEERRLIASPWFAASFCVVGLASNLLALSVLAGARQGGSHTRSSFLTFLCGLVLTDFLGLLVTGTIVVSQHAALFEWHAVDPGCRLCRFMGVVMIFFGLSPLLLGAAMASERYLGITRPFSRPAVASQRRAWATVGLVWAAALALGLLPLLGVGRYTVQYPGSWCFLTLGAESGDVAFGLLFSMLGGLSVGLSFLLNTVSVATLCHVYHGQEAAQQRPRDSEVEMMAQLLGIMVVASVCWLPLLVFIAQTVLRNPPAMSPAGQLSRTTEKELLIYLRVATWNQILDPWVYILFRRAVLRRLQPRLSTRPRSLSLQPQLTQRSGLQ

Adenosine receptor A2a = Adenosine receptor A2a (Homo sapiens, UniProt P29274)
Adenosine receptor A2a, sequence (P29274 whole entry): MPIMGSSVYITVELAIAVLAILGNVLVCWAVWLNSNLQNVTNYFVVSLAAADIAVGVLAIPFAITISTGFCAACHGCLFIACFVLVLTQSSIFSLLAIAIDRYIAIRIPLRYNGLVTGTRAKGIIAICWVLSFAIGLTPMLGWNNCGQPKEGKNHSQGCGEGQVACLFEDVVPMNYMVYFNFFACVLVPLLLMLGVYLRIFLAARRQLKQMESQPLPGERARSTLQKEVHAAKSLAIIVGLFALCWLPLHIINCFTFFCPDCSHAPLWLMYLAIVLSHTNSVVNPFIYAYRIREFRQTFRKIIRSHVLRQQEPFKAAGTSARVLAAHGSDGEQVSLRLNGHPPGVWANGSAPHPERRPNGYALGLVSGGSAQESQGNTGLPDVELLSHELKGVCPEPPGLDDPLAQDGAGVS

[10] = target: 5-hydroxytryptamine receptor 2B (Homo sapiens, UniProt P41595); assay type: functional, cell-based
5-hydroxytryptamine receptor 2B, sequence (P41595 whole entry): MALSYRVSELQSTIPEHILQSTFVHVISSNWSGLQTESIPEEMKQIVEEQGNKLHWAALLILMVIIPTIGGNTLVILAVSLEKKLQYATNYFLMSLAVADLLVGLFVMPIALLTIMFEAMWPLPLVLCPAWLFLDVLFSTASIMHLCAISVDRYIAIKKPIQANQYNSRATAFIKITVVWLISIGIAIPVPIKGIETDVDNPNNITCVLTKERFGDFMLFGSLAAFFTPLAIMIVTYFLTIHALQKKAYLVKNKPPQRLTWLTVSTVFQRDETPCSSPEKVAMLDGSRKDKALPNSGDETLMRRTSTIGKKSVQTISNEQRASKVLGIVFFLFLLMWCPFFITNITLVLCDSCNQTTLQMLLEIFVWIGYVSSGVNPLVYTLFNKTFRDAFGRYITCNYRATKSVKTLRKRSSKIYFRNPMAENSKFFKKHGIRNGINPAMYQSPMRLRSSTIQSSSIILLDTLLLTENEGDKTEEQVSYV

[11] = target: 5-hydroxytryptamine receptor 2A (Homo sapiens, UniProt P28223); assay type: functional, cell-based
5-hydroxytryptamine receptor 2A, sequence (P28223 whole entry): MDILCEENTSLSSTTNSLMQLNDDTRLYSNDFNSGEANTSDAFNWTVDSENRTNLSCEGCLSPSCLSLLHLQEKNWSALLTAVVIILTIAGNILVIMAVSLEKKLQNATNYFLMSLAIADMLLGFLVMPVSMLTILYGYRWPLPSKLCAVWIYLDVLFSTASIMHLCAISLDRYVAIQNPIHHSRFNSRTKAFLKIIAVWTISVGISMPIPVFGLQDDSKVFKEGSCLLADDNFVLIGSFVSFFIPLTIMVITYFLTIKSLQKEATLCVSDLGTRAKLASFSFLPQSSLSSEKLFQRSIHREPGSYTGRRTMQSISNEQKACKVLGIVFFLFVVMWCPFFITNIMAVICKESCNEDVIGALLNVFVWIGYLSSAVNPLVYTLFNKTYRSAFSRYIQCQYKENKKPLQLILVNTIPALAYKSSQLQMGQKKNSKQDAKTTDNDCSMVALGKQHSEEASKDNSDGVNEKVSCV

[12] = target: T5, 5-hydroxytryptamine receptor 1A (Homo sapiens, UniProt P08908); assay type: functional, cell-based
T5 sequence (P08908 whole entry): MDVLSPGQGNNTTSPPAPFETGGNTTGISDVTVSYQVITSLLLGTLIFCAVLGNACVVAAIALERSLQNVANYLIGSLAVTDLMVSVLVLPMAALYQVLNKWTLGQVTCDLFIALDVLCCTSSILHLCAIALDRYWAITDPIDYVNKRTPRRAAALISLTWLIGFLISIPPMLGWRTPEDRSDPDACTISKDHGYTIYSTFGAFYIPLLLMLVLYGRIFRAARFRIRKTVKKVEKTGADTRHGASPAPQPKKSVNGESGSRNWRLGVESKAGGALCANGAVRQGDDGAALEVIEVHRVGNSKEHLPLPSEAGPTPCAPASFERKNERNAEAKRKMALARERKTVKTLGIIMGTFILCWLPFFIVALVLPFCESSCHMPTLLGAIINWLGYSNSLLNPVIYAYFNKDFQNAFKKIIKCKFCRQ
Note: assay procedure not described here.

cGMP-inhibited 3',5'-cyclic phosphodiesterase 3A, sequence (Q14432 whole entry): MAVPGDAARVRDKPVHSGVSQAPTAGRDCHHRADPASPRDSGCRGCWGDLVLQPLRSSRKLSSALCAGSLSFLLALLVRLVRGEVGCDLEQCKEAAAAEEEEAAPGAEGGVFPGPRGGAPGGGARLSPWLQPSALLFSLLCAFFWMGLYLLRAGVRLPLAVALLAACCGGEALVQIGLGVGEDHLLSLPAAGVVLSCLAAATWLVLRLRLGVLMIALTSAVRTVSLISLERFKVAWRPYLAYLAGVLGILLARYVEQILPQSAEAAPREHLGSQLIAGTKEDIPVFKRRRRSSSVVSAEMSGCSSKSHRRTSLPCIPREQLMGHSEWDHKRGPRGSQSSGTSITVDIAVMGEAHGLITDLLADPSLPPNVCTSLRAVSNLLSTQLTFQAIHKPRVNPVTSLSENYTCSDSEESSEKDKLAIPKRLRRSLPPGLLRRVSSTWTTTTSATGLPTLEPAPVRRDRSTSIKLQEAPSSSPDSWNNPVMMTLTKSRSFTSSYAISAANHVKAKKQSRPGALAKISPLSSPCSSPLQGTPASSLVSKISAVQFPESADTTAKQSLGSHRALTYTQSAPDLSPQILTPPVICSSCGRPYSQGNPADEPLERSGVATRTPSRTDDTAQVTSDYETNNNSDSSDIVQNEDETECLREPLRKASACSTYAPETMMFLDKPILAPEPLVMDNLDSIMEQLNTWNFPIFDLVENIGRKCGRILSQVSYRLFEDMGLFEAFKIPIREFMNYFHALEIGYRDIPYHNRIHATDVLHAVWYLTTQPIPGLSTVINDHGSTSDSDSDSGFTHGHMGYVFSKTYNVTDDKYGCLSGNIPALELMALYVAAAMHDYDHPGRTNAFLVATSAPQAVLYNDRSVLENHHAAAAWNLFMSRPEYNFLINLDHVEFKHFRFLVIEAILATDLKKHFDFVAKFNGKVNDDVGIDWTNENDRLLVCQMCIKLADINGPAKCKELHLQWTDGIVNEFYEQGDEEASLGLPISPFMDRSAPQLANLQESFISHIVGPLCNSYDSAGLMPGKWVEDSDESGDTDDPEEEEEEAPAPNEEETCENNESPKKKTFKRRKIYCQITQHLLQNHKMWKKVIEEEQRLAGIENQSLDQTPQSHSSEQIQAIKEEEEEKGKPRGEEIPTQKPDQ
Cannabinoid receptor 1, sequence (P21554 whole entry): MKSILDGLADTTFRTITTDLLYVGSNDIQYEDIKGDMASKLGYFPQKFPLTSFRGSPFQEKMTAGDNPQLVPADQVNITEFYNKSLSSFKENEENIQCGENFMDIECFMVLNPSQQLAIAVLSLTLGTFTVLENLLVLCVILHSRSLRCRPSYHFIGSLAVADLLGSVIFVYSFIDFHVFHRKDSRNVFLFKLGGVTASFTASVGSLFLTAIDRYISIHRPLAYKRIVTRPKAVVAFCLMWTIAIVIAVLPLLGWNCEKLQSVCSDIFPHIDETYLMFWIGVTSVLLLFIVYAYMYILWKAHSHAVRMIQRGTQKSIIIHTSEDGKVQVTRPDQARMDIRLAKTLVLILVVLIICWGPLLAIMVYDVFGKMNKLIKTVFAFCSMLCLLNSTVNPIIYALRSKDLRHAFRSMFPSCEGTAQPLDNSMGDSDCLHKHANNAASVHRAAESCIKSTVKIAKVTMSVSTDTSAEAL

Row | Compound | AC50 [1] [µM] | AC50 [2] [µM] | AC50 [3] [µM] | AC50 (Cannabinoid receptor 1) [µM] | AC50 [4] [µM] | AC50 (Histamine H2 receptor) [µM] | AC50 [5] [µM] | AC50 [6] [µM] | AC50 [7] [µM] | AC50 [8] [µM] | AC50 [9] [µM] | AC50 (Thromboxane A2 receptor) [µM] | AC50 (Adenosine receptor A2a) [µM] | AC50 [10] [µM] | AC50 [11] [µM] | AC50 [12] [µM]
1 | COC(=O)C1=C(C)NC(C)=C(C(=O)OC2CCCN(Cc3ccccc3)C2)C1c1cccc([N+](=O)[O-])c1 (stereo not drawn) [BENIDIPINE] | > 30 | 4.2 | > 30 | > 30 | > 30 | > 30 | > 30 | > 30 | > 30 | > 30 | 26 | > 30 | > 30 | > 30 | > 30 | 
2 | Cc1cc(O)c(C(=O)N[C@@H](C(=O)N[C@@H]2C(=O)N3C(C(=O)O)=C(CSc4nnnn4C)CS[C@H]23)c2ccc(O)cc2)cn1 [CEFPIRAMIDE] | > 30 | > 30 | > 30 |  | > 30 | > 30 | > 30 | > 30 | > 30 | > 30 | > 30 | > 30 | > 30 | > 30 | > 30 | > 30
3 | NCC(=O)CCC(=O)O [AMINOLEVULINIC ACID] | > 30 | > 30 | > 30 | > 30 | > 30 | > 30 | > 30 | > 30 | > 30 | > 30 | > 30 | > 30 | > 30 |  | > 30 | 
4 | COC(=O)C1=C(C)NC(C)=C(C(=O)OC(C)(C)CN(C)CCC(c2ccccc2)c2ccccc2)C1c1cccc([N+](=O)[O-])c1 (stereo not drawn) [LERCANIDIPINE] | > 30 | 25 | > 30 |  | > 30 | > 30 | > 30 | > 30 | > 30 | > 30 | > 30 | > 30 | > 30 | > 30 | > 30 | > 30
5 | CC(C)C(=O)c1c(C(C)C)nn2ccccc12 [IBUDILAST] | > 30 |  | > 30 | > 30 | > 30 | > 30 | > 30 | > 30 | > 30 | > 30 | > 30 | > 30 | 17 | > 30 | > 30 | 
6 | CN1CCC(=C2c3ccccc3CCc3sccc32)CC1 [PIZOTYLINE] | > 10 | > 30 | > 10 | > 30 | > 30 | > 10 | 8.88 | > 30 | > 30 | > 30 | > 30 | > 30 | > 30 | 0.0279 | > 30 | 
7 | Nc1nc(/C(=C/CC(=O)O)C(=O)N[C@@H]2C(=O)N3C(C(=O)O)=CCS[C@H]23)cs1 [CEFTIBUTEN] | > 30 | > 30 | > 30 |  | > 30 | > 30 | > 30 | > 30 | > 30 | > 30 | > 30 | > 30 | > 30 | > 30 | > 30 | > 30
